16 molecules from ChEMBL document CHEMBL5291721, “A preclinical secondary pharmacology resource illuminates target-adverse drug reaction associations of marketed drugs” (Nat Commun, 2023) can be followed below.

One experiment deals with T1, Thromboxane A2 receptor (Homo sapiens, UniProt P21731).
T1 sequence (P21731 whole entry): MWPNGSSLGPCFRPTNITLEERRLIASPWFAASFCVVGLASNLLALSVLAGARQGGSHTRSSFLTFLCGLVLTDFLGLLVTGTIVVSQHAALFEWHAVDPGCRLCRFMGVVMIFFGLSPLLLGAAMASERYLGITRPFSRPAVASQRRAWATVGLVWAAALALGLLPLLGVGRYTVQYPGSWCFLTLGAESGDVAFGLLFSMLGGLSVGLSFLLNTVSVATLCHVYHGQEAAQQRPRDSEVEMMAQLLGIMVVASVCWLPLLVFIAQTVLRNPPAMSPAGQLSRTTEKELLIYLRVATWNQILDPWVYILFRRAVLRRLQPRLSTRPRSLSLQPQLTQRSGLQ
The experiment is classed as functional, cell-based.

Experiment [1] addresses Voltage-dependent N-type calcium channel subunit alpha-1B (Rattus norvegicus, UniProt Q02294). The experiment is classed as functional.
A further experiment concerns the target Substance-P receptor (Homo sapiens, UniProt P25103).
The target of experiment [2] is T2, Alpha-1A adrenergic receptor (Homo sapiens, UniProt P35348).
T2 sequence (P35348 whole entry): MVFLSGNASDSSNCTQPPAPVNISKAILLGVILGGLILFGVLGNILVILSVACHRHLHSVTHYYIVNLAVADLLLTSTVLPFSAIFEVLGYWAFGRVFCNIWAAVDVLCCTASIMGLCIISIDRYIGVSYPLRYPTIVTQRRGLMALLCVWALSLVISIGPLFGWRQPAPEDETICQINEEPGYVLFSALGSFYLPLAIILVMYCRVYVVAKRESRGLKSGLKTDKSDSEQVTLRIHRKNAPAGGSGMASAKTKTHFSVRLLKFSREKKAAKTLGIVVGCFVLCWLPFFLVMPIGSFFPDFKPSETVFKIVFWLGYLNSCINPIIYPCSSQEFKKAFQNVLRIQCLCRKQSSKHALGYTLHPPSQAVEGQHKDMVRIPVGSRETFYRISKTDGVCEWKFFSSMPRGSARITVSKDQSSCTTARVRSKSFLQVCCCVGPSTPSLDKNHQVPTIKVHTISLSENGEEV

The target in experiment [3] is T3, 5-hydroxytryptamine receptor 1A (Homo sapiens, UniProt P08908).
T3 sequence (P08908 whole entry): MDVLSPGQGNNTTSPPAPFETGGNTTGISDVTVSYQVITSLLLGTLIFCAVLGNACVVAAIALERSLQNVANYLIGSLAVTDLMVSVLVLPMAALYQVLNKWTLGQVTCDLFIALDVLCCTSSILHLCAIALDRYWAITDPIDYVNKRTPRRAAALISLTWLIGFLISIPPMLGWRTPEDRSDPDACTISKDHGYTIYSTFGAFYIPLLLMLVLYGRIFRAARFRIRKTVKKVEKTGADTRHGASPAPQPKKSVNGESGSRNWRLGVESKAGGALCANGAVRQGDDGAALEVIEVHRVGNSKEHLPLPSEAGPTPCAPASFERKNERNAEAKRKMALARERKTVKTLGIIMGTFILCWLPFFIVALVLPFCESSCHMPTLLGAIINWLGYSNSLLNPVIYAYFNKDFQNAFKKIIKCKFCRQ

For another experiment, the target named is T4, Androgen receptor (Rattus norvegicus, UniProt P15207).
T4 sequence (P15207 whole entry): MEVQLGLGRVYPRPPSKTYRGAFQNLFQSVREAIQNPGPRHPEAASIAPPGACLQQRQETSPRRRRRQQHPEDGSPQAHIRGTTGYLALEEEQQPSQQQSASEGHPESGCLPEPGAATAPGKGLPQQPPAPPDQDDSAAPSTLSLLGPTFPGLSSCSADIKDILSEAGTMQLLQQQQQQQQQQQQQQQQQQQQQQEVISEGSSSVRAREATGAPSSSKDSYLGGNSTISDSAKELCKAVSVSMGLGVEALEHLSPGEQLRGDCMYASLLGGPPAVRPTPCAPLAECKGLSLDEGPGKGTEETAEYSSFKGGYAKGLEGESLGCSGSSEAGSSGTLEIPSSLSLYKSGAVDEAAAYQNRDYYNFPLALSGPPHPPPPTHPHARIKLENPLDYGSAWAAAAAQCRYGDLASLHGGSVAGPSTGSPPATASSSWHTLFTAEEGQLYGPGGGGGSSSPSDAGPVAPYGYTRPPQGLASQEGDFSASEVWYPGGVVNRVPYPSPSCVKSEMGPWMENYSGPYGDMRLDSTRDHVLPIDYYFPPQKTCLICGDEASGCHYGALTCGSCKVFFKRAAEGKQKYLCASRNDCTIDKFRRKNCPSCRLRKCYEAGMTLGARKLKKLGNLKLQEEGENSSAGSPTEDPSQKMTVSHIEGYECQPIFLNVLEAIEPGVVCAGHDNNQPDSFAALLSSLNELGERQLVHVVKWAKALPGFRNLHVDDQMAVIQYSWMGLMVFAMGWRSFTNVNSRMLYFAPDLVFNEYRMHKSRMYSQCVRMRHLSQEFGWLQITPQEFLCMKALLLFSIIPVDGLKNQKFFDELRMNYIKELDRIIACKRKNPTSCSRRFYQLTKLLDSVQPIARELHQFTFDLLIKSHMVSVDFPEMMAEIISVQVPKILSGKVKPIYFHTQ
The experiment is classed as functional.

Experiment [4] concerns the target T5, Peroxisome proliferator-activated receptor gamma (Homo sapiens, UniProt P37231).
T5 sequence (P37231 whole entry): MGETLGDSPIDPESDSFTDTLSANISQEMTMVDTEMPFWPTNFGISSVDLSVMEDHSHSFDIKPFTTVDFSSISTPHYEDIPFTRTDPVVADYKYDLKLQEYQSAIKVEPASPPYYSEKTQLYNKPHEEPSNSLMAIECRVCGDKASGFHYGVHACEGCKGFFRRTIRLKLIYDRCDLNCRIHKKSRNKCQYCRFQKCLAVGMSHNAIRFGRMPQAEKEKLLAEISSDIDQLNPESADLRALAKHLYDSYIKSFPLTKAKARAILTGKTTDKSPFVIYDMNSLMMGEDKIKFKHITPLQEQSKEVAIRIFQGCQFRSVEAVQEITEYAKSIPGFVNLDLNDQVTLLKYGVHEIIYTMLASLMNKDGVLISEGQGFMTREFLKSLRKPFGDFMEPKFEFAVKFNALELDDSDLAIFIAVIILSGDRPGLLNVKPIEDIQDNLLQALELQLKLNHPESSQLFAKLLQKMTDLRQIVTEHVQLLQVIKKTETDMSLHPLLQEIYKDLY
The experiment is classed as functional.

A further experiment deals with Cannabinoid receptor 1 (Homo sapiens, UniProt P21554). The experiment is classed as functional.
Experiment [5] has as its target Gamma-aminobutyric acid receptor subunit alpha-1 (Rattus norvegicus, UniProt P62813).
Further: assay procedure not described here.

Chain of Voltage-dependent N-type calcium channel subunit alpha-1B (Q02294 whole entry): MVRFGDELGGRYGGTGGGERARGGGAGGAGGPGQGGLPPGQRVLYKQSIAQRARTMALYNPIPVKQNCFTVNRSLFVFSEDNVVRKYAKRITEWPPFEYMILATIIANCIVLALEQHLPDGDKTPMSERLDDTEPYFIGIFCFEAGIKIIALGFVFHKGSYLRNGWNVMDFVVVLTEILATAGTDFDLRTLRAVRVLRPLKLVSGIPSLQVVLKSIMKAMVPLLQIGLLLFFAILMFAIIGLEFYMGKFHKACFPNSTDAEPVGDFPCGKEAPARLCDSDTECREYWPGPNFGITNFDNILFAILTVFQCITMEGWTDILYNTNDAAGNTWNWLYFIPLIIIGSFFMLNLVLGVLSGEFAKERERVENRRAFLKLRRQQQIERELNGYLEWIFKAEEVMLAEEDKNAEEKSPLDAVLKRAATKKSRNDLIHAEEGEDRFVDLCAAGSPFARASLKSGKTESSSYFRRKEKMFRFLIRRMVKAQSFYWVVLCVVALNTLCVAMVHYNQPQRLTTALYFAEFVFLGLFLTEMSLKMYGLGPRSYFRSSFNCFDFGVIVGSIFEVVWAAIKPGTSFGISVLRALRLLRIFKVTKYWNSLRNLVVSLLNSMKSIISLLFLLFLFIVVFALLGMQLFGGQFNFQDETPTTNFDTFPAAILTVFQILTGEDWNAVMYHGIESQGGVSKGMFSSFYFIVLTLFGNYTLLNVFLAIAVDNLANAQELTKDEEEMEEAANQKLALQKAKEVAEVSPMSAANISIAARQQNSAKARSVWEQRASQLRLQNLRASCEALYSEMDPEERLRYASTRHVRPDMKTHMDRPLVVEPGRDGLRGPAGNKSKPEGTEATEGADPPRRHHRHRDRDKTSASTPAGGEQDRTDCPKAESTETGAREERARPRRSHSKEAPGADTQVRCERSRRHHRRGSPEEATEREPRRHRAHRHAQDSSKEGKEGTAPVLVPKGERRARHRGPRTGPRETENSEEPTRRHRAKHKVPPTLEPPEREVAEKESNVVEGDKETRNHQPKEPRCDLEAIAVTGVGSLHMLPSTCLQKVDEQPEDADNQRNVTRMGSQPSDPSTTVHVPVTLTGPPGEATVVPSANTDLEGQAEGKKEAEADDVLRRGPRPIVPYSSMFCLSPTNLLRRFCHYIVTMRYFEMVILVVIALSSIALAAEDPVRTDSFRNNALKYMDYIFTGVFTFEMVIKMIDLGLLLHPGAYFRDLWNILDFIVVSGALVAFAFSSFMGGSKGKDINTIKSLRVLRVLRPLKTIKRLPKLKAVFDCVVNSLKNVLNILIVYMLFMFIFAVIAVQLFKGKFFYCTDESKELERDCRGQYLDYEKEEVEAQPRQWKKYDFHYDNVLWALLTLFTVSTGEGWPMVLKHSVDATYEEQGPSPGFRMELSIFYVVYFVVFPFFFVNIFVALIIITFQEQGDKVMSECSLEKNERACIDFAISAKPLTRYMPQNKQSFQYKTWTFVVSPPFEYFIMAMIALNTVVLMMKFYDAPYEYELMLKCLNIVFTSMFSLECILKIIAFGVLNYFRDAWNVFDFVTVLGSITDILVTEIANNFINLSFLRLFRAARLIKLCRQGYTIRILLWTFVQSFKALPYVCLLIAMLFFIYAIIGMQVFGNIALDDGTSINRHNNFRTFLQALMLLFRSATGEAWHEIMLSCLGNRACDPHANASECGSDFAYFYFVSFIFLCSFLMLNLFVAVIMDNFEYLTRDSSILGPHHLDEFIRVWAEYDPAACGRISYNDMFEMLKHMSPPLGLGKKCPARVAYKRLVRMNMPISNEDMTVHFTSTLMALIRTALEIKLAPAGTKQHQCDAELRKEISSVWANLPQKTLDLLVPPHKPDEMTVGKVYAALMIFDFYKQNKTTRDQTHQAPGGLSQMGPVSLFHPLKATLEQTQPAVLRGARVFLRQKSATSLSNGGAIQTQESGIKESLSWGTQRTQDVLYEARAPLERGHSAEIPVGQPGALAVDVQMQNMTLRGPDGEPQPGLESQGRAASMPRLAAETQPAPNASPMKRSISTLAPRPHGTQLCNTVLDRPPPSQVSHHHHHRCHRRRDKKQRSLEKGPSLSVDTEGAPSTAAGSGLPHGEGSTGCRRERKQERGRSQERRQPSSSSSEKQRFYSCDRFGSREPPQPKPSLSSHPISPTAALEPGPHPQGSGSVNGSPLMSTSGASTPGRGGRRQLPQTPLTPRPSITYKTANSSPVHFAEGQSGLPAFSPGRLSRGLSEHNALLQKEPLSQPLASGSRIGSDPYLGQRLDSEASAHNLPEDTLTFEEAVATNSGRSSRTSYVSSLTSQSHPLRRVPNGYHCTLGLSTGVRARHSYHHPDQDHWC
Chain of Cannabinoid receptor 1 (P21554 whole entry): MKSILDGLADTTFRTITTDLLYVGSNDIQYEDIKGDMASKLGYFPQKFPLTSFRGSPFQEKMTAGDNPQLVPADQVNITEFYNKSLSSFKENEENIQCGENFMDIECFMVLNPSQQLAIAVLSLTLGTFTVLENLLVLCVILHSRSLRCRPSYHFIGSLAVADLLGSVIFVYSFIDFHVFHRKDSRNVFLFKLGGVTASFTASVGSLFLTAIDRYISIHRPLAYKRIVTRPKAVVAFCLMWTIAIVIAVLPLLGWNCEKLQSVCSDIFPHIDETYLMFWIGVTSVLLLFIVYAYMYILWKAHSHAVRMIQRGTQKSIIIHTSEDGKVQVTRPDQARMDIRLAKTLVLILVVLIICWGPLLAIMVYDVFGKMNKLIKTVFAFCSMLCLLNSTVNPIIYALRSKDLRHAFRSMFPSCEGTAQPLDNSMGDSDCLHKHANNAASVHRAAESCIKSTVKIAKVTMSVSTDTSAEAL
Chain of Substance-P receptor (P25103 whole entry): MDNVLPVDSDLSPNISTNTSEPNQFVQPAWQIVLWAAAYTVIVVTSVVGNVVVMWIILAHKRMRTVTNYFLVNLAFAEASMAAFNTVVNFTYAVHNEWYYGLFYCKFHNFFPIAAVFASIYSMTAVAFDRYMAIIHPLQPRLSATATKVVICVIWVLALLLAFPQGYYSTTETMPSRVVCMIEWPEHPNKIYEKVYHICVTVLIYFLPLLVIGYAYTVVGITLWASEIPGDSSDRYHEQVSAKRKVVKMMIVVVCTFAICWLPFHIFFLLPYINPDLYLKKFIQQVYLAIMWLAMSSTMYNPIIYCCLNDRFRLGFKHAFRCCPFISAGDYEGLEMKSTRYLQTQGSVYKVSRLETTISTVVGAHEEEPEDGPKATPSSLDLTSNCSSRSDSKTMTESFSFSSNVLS
Chain of Gamma-aminobutyric acid receptor subunit alpha-1 (P62813 whole entry): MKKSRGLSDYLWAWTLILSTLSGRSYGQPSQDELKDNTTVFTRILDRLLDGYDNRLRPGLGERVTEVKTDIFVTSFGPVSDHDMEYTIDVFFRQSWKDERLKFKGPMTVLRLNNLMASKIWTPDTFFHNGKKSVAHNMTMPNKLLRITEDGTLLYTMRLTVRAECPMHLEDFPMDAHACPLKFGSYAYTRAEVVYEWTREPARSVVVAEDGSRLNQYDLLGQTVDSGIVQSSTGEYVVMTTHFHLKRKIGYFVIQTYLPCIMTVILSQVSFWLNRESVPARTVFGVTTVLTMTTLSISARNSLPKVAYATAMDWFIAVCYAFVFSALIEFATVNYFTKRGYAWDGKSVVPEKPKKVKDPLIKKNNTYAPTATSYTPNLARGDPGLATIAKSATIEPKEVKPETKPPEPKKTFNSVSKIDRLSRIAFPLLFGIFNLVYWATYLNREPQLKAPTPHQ

As a reminder, the AC50 is the midpoint of the concentration-response curve, whichever way the signal moves. For `Oc1ncnc2[nH]ncc12` [ALLOPURINOL], the AC50 at Thromboxane A2 receptor is over 30 µM; in experiment [1] it was over 10 µM; on Substance-P receptor, over 10 µM; in [2], over 10 µM; in [3], over 10 µM.
Regarding `CO/N=C(\C(=O)N[C@@H]1C(=O)N2C(C(=O)[O-])=C(C[N+]3(C)CCCC3)CS[C@H]12)c1csc(N)n1`, the AC50 at Thromboxane A2 receptor was over 300 µM; at Androgen receptor it was over 300 µM; in experiment [4], 200 µM.
`O=C(CCCCCCC(=O)Nc1ccccc1)NO` [VORINOSTAT]: the half-maximal activity concentration (AC50) (on Cannabinoid receptor 1; in experiment [1]; on Substance-P receptor; in experiment [2]; in [3]) was over 10 µM in each case.
Take `CCc1nn(CCCN2CCN(c3cccc(Cl)c3)CC2)c(=O)n1CCOc1ccccc1` [NEFAZODONE]: the AC50 on Cannabinoid receptor 1 was over 10 µM; in [1] it was over 10 µM; on Substance-P receptor, 2.45 µM; in experiment [2], 0.13 µM; in experiment [3], 0.254 µM.
Regarding `COc1cc(Nc2c(C#N)cnc3cc(OCCCN4CCN(C)CC4)c(OC)cc23)c(Cl)cc1Cl` [BOSUTINIB], the half-maximal activity concentration (AC50) on Cannabinoid receptor 1 is over 10 µM; in experiment [1], over 10 µM; at Substance-P receptor it was 8 µM; in [5], over 30 µM; in experiment [3] it was over 10 µM.
Turning to `CCc1ccc(CCOc2ccc(CC3SC(=O)NC3=O)cc2)nc1` (stereo not given) [PIOGLITAZONE], the half-maximal activity concentration (AC50) was over 10 µM at Cannabinoid receptor 1; over 10 µM in experiment [1]; over 10 µM at Substance-P receptor; over 30 µM in experiment [5]; over 10 µM in experiment [2]; over 10 µM in experiment [3].
On Thromboxane A2 receptor, `CC(C)C(=O)Nc1ccc([N+](=O)[O-])c(C(F)(F)F)c1` [FLUTAMIDE] displayed a half-maximal activity concentration (AC50) of 6 µM.
As to `NS(=O)(=O)c1cc2c(cc1Cl)NCNS2(=O)=O` [HYDROCHLOROTHIAZIDE], the AC50 (at Cannabinoid receptor 1; in experiment [1]; at Substance-P receptor; in [2]; in [3]) was over 10 µM each time.
Turning to `NC(N)=Nc1nc(CSCCC(N)=NS(N)(=O)=O)cs1` [FAMOTIDINE], the AC50 (at Cannabinoid receptor 1; in experiment [1]; on Substance-P receptor; in experiment [2]; in experiment [3]) was over 10 µM in each case.
`NC(=O)c1cnccn1` [PYRAZINAMIDE]: the half-maximal activity concentration (AC50) at Cannabinoid receptor 1 is over 10 µM; on Thromboxane A2 receptor it was over 30 µM; in experiment [1] it was over 10 µM; in experiment [2] it was over 10 µM; in experiment [3], over 10 µM.
As for `Nc1nc(N)c2nc(-c3ccccc3)c(N)nc2n1`, the AC50 on Cannabinoid receptor 1 was over 10 µM; on Thromboxane A2 receptor, over 30 µM; in experiment [1] it was over 10 µM; on Substance-P receptor, over 10 µM; at Androgen receptor, over 30 µM; in [2] it was over 10 µM. This molecule also returned an AC50 in experiment [3] of over 10 µM.
`COc1cc2c(cc1OC)C(=O)C(CC1CCN(Cc3ccccc3)CC1)C2` (stereo not given) [DONEPEZIL]: the AC50 on Cannabinoid receptor 1 and on Substance-P receptor was over 10 µM in each case.
`CC(C)Cc1ccc(CC(=O)O)cc1` [IBUFENAC]: the AC50 (at Thromboxane A2 receptor; in experiment [4]) was over 30 µM in each case.
Take `C[C@H]1O[C@H](O[C@H]2[C@H](O)[C@@H](O)[C@@H](O[C@H]3[C@H](O)[C@@H](O)C(O)O[C@@H]3CO)O[C@@H]2CO)[C@H](O)[C@@H](O)[C@@H]1N[C@H]1C=C(CO)[C@@H](O)[C@H](O)[C@H]1O` (stereo not given in full) [ACARBOSE]: the AC50 on Cannabinoid receptor 1 was over 10 µM; in [1], over 10 µM; on Substance-P receptor, over 10 µM; in [5], over 30 µM; in experiment [2], over 10 µM; in [3], over 10 µM.
For the molecule `CCOC(=O)[C@H](CCc1ccccc1)N[C@@H](C)C(=O)N1CCC[C@H]1C(=O)O`, the half-maximal activity concentration (AC50) (at Cannabinoid receptor 1; in experiment [1]; at Substance-P receptor; in experiment [2]; in [3]) was over 10 µM in each case.
As to `CC(C)NNC(=O)c1ccncc1` [IPRONIAZID], the AC50 (at Thromboxane A2 receptor; on Androgen receptor; in experiment [4]) was over 30 µM in each case.
